Experimental data taken from patent publication US20050096224A1 (priority 2002, published 2005).

Tested on: G. pallida
Experiment: Test A: control of G. pallida by oxamyl on potted potato plants
Assay type: in vivo, Globodera pallida
Settings: serial small doses at 4-day, 7-day or 14-day intervals over the hatching period vs equivalent dose (3.5, 4.5 or 5.5 kg ai/ha) in one application at planting; 70 days; initial 10 or 50 eggs/g of soil; potato in pots
Source text: G. pallida is the more pernicious pest of potatoes. Studies have been conducted with Composition A comprising oxamyl as described above.
The test units consisted of large diameter pots each containing one potato plant, planted in soil amended with eggs of G. pallida at either 24 cysts per pot (estimated to be about 10 eggs/g of soil) or 120 cysts per pot (estimated to be about 50 eggs/g of soil). These pest burdens represent a level of infestation that would require treatment in order to prevent crop damage and potential multiplication of the pest (10 eggs/g of soil) and substantial yield loss (50 eggs/g of soil).
Composition A was introduced into the test units diluted in a constant volume of water. […] The dose at each application was applied in the same volume of water and in equal incremental quantities. […] The number of cysts attached to the roots per gram of root mass (washed free of soil) was determined at 70 days (10 weeks) after commencement of the trial. […]

`CNC(=O)ON=C(SC)C(=O)N(C)C` [oxamyl, N,N-dimethyl-2-methylcarbamoyloxyimino-2-(methylthio)acetamide] was tested, and the “control of cyst production by G. pallida (number of cysts attached to the roots per gram of root mass)” value was “superior control”.
